ChEMBL document CHEMBL5058645, “Data for DCP probe JNJ-6204” (2022)

How the values were obtained:
[1] = biological target: Serine/threonine-protein kinase 17A (Homo sapiens) (UniProt Q9UEE5); assay: DRAK1(h) Kinase panel; conditions: Compound concentration 1.0 uM, tested as the 2H-labelled form
[2] = biological target: Serine/threonine-protein kinase Nek4 (Homo sapiens) (UniProt P51957); assay: NEK4(h) Kinase panel; conditions: Compound concentration 1.0 uM, tested as the 2H-labelled form
[3] = biological target: D(2) dopamine receptor (Homo sapiens) (UniProt P14416); conditions: Compound concentration 10.0 uM, tested as the 2H-labelled form
[4] = biological target: Serine/threonine-protein kinase 4 (Homo sapiens) (UniProt Q13043); assay: MST1(h) Kinase panel; conditions: Compound concentration 1.0 uM, tested as the 2H-labelled form
[5] = biological target: cGMP-dependent protein kinase 1 (Homo sapiens) (UniProt Q13976); assay: PKG1beta (h) Kinase panel; conditions: Compound concentration 1.0 uM, tested as the 2H-labelled form
[6] = biological target: Calcium/calmodulin-dependent protein kinase type II subunit beta (Homo sapiens) (UniProt Q13554); assay: CaMKIIbeta(h) Kinase panel; conditions: Compound concentration 1.0 uM, tested as the 2H-labelled form
Chain of Calcium/calmodulin-dependent protein kinase type II subunit beta (Homo sapiens) (Q13554 whole entry): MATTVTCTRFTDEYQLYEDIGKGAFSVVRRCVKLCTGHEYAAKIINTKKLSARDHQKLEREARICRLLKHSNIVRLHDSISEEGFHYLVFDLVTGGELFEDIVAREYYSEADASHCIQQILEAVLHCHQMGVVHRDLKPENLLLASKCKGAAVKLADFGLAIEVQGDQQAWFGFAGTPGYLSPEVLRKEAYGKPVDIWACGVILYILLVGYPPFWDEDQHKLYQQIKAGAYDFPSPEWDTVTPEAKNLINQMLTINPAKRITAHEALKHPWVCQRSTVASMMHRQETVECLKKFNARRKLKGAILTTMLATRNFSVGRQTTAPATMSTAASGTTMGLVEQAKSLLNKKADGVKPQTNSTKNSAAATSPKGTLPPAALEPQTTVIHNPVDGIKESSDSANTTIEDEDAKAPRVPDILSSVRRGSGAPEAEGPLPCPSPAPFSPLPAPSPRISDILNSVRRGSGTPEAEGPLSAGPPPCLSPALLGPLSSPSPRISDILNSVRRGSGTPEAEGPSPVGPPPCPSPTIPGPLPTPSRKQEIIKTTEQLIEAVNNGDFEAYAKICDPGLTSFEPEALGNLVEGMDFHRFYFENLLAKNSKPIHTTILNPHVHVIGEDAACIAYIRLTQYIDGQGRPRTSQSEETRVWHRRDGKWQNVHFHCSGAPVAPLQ

[7] = biological target: Macrophage-stimulating protein receptor (Homo sapiens) (UniProt Q04912); assay: Ron(h) Kinase panel; conditions: Compound concentration 1.0 uM, tested as the 2H-labelled form
[8] = biological target: Muscarinic acetylcholine receptor M2 (Homo sapiens) (UniProt P08172); conditions: Compound concentration 10.0 uM, tested as the 2H-labelled form
[9] = biological target: Epidermal growth factor receptor (Homo sapiens) (UniProt P00533); assay: EGFR(h) Kinase panel; conditions: Compound concentration 1.0 uM, tested as the 2H-labelled form
[10] = biological target: Tyrosine-protein kinase receptor TYRO3 (Homo sapiens) (UniProt Q06418); assay: Rse(h) Kinase panel; conditions: Compound concentration 1.0 uM, tested as the 2H-labelled form
[11] = biological target: Serine/threonine-protein kinase MRCK alpha (Homo sapiens) (UniProt Q5VT25); assay: MRCKalpha(h) Kinase panel; conditions: Compound concentration 1.0 uM, tested as the 2H-labelled form
[12] = biological target: MAP kinase-interacting serine/threonine-protein kinase 2 (Homo sapiens) (UniProt Q9HBH9); assay: Mnk2(h) Kinase panel; conditions: Compound concentration 1.0 uM, tested as the 2H-labelled form
[13] = biological target: Serine/threonine-protein kinase Nek11 (Homo sapiens) (UniProt Q8NG66); assay: NEK11(h) Kinase panel; conditions: Compound concentration 1.0 uM, tested as the 2H-labelled form
[14] = biological target: Serine/threonine-protein kinase mTOR (Homo sapiens) (UniProt P42345); assay: mTOR(h) Kinase panel; conditions: Compound concentration 1.0 uM, tested as the 2H-labelled form
[15] = biological target: Sigma intracellular receptor 2 (Homo sapiens) (UniProt Q5BJF2); conditions: Compound concentration 10.0 uM, tested as the 2H-labelled form
[16] = biological target: Dual specificity protein kinase CLK2 (Homo sapiens) (UniProt P49760); assay: CLK2(h) Kinase panel; conditions: Compound concentration 1.0 uM, tested as the 2H-labelled form
[17] = biological target: Serine/threonine-protein kinase TAO3 (Homo sapiens) (UniProt Q9H2K8); assay: TAO3(h) Kinase panel; conditions: Compound concentration 1.0 uM, tested as the 2H-labelled form
[18] = biological target: G protein-coupled receptor kinase 3 (Homo sapiens) (UniProt P35626); assay: GRK3(h) Kinase panel; conditions: Compound concentration 1.0 uM, tested as the 2H-labelled form
[19] = biological target: Calcium/calmodulin-dependent protein kinase type II subunit alpha (Homo sapiens) (UniProt Q9UQM7); assay: CaMKIIalpha(h) Kinase panel; conditions: Compound concentration 1.0 uM, tested as the 2H-labelled form
[20] = biological target: BMP-2-inducible protein kinase (Homo sapiens) (UniProt Q9NSY1); assay: BIKe(h) Kinase panel; conditions: Compound concentration 1.0 uM, tested as the 2H-labelled form
[21] = biological target: Serine/threonine-protein kinase DCLK1 (Homo sapiens) (UniProt O15075); assay: DCAMKL1(h) Kinase panel; conditions: Compound concentration 1.0 uM, tested as the 2H-labelled form
Chain of Serine/threonine-protein kinase DCLK1 (Homo sapiens) (O15075 whole entry): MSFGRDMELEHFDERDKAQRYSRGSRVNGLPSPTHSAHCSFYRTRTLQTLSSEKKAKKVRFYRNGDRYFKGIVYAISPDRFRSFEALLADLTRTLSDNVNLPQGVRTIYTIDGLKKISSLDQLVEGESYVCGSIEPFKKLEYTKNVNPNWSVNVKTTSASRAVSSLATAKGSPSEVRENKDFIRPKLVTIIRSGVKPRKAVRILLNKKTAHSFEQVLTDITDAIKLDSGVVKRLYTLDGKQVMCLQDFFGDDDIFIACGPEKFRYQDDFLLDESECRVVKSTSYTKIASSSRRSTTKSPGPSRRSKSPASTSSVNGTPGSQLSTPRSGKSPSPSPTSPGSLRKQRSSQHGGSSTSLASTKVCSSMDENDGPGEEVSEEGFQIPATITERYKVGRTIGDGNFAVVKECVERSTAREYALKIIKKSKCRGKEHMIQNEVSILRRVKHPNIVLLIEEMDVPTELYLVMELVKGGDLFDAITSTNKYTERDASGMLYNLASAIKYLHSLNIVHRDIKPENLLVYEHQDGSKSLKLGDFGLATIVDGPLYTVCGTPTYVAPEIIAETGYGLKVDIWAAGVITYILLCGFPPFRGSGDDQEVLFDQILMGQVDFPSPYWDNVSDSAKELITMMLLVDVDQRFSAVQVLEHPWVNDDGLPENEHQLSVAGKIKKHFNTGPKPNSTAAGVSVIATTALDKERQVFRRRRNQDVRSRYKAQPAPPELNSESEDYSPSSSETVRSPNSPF

[22] = biological target: Interleukin-1 receptor-associated kinase 4 (Homo sapiens) (UniProt Q9NWZ3); assay: IRAK4(h) Kinase panel; conditions: Compound concentration 1.0 uM, tested as the 2H-labelled form
Chain of Interleukin-1 receptor-associated kinase 4 (Homo sapiens) (Q9NWZ3 whole entry): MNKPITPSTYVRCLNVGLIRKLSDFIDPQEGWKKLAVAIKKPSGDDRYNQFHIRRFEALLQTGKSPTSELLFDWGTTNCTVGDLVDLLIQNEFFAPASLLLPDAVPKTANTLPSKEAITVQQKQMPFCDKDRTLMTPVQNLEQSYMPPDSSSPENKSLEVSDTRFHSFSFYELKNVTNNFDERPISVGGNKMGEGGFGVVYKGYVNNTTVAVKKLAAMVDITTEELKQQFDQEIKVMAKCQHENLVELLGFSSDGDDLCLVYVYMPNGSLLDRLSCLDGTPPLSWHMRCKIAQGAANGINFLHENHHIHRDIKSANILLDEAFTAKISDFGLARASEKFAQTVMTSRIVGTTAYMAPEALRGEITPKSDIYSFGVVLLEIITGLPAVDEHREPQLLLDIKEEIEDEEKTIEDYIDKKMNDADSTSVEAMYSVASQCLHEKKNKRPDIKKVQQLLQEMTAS

[23] = biological target: Phosphatidylinositol 4-phosphate 5-kinase type-1 alpha (Homo sapiens) (UniProt Q99755); assay: PIP5K1a(h) Kinase panel; conditions: Compound concentration 1.0 uM, tested as the 2H-labelled form
[24] = biological target: 5'-AMP-activated protein kinase catalytic subunit alpha-2 (Homo sapiens, UniProt P54646); assay: AMPKalpha2(h) Kinase panel; conditions: Compound concentration 1.0 uM, tested as the 2H-labelled form
[25] = biological target: Serine/threonine-protein kinase 26 (Homo sapiens) (UniProt Q9P289); assay: MST4(h) Kinase panel; conditions: Compound concentration 1.0 uM, tested as the 2H-labelled form
[26] = biological target: Serine/threonine-protein kinase PAK 6 (Homo sapiens) (UniProt Q9NQU5); assay: PAK6(h) Kinase panel; conditions: Compound concentration 1.0 uM, tested as the 2H-labelled form
Chain of Serine/threonine-protein kinase PAK 6 (Homo sapiens) (Q9NQU5 whole entry, looked up): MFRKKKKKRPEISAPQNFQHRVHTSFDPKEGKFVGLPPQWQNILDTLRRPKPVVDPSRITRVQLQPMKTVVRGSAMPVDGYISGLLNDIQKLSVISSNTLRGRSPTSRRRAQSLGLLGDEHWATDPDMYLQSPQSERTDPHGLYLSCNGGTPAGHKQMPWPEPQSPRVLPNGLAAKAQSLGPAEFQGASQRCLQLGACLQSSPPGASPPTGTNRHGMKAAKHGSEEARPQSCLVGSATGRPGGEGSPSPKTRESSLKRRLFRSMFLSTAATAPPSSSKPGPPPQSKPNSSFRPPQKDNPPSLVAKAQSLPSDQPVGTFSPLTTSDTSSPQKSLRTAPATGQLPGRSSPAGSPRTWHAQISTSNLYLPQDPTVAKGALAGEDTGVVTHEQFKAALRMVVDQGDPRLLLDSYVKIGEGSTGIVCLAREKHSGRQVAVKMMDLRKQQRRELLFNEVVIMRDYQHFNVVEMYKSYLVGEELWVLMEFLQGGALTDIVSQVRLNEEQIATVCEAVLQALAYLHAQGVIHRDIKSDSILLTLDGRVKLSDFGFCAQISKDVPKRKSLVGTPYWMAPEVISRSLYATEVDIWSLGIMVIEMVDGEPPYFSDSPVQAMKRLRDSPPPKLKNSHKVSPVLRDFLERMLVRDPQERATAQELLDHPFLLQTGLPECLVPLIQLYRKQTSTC

[27] = biological target: Cyclin-dependent kinase 7 (Homo sapiens) (UniProt P50613); assay: CDK7/cyclinH/MAT1(h) Kinase panel; conditions: Compound concentration 1.0 uM, tested as the 2H-labelled form
[28] = biological target: Tyrosine-protein kinase Yes (Homo sapiens) (UniProt P07947); assay: Yes(h) Kinase panel; conditions: Compound concentration 1.0 uM, tested as the 2H-labelled form
[29] = biological target: Leukocyte tyrosine kinase receptor (Homo sapiens) (UniProt P29376); assay: LTK(h) Kinase panel; conditions: Compound concentration 1.0 uM, tested as the 2H-labelled form
[30] = biological target: Protein kinase C gamma type (Homo sapiens) (UniProt P05129); assay: PKCgamma(h) Kinase panel; conditions: Compound concentration 1.0 uM, tested as the 2H-labelled form
[31] = biological target: Phosphatidylinositol 4-phosphate 5-kinase type-1 gamma (Homo sapiens) (UniProt O60331); assay: PIP5K1g(h) Kinase panel; conditions: Compound concentration 1.0 uM, tested as the 2H-labelled form
[32] = biological target: Tyrosine-protein kinase TXK (Homo sapiens) (UniProt P42681); assay: Txk(h) Kinase panel; conditions: Compound concentration 1.0 uM, tested as the 2H-labelled form
[33] = biological target: Protein kinase C theta type (Homo sapiens) (UniProt Q04759); assay: PKCtheta (h) Kinase panel; conditions: Compound concentration 1.0 uM, tested as the 2H-labelled form
[34] = biological target: Cyclin-dependent kinase 5 (Homo sapiens) (UniProt Q00535); assay: CDK5/p35(h) Kinase panel; conditions: Compound concentration 1.0 uM, tested as the 2H-labelled form
Chain of Cyclin-dependent kinase 5 (Homo sapiens) (Q00535 whole entry, looked up): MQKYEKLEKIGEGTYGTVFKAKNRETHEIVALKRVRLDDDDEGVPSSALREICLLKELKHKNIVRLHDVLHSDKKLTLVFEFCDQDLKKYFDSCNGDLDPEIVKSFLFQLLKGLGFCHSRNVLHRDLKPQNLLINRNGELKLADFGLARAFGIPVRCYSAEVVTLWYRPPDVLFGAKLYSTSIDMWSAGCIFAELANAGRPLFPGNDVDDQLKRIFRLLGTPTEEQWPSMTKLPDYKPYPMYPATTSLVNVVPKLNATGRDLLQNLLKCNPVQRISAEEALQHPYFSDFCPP

[35] = biological target: Tyrosine-protein kinase Fer (Homo sapiens) (UniProt P16591); assay: Fer(h) Kinase panel; conditions: Compound concentration 1.0 uM, tested as the 2H-labelled form
Chain of Tyrosine-protein kinase Fer (Homo sapiens) (P16591 whole entry, looked up): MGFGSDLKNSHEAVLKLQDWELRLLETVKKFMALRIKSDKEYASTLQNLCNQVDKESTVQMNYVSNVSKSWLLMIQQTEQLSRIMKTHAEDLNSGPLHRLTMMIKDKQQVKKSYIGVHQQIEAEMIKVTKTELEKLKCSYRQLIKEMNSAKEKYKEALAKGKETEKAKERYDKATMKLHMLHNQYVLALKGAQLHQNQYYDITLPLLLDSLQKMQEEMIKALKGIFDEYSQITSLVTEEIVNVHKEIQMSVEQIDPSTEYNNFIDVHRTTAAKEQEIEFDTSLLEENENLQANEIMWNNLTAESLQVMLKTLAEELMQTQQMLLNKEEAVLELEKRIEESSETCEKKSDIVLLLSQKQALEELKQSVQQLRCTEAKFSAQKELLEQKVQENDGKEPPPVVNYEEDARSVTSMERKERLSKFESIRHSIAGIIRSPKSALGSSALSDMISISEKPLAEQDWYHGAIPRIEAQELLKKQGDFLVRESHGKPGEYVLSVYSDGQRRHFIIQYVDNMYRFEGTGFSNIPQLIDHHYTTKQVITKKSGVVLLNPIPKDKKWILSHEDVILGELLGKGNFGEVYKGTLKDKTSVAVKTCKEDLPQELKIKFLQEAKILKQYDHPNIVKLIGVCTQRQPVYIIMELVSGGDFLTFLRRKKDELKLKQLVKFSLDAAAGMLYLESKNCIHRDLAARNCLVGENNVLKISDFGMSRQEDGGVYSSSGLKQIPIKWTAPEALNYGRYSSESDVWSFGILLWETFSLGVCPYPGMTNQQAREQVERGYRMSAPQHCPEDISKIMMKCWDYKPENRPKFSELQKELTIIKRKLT

[36] = biological target: Calcium/calmodulin-dependent protein kinase kinase 2 (Homo sapiens) (UniProt Q96RR4); assay: CaMKK2(h) Kinase panel; conditions: Compound concentration 1.0 uM, tested as the 2H-labelled form
[37] = biological target: Dual specificity protein kinase CLK4 (Homo sapiens) (UniProt Q9HAZ1); assay: CLK4(h) Kinase panel; conditions: Compound concentration 1.0 uM, tested as the 2H-labelled form
[38] = biological target: Muscarinic acetylcholine receptor M3 (Homo sapiens) (UniProt P20309); conditions: Compound concentration 10.0 uM, tested as the 2H-labelled form
Chain of Muscarinic acetylcholine receptor M3 (Homo sapiens) (P20309 whole entry, looked up): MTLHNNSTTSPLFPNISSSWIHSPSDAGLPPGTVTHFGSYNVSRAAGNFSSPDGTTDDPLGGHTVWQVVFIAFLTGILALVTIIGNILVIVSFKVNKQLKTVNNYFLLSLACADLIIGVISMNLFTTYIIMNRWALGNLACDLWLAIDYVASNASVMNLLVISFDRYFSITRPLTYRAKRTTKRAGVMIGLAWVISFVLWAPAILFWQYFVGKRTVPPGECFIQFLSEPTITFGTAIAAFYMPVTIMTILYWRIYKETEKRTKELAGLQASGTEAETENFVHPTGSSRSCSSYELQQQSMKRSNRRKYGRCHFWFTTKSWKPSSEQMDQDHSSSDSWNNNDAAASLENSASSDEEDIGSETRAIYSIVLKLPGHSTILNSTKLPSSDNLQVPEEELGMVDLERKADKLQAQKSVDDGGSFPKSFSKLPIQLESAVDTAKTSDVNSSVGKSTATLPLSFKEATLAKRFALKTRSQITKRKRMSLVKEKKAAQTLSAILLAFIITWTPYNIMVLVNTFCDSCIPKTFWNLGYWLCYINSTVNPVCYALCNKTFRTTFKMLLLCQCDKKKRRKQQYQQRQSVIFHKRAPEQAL

[39] = biological target: Serine/threonine-protein kinase WNK4 (Homo sapiens) (UniProt Q96J92); assay: WNK4(h) Kinase panel; conditions: Compound concentration 1.0 uM, tested as the 2H-labelled form
[40] = biological target: Protein kinase C eta type (Homo sapiens) (UniProt P24723); assay: PKCeta (h) Kinase panel; conditions: Compound concentration 1.0 uM, tested as the 2H-labelled form
[41] = biological target: Serine/threonine-protein kinase pim-2 (Homo sapiens) (UniProt Q9P1W9); assay: Pim-2(h) Kinase panel; conditions: Compound concentration 1.0 uM, tested as the 2H-labelled form
[42] = biological target: Ephrin type-A receptor 2 (Homo sapiens) (UniProt P29317); assay: EphA2(h) Kinase panel; conditions: Compound concentration 1.0 uM, tested as the 2H-labelled form
[43] = biological target: Interferon-induced, double-stranded RNA-activated protein kinase (Homo sapiens) (UniProt P19525); assay: PKR(h) Kinase panel; conditions: Compound concentration 1.0 uM, tested as the 2H-labelled form
[44] = biological target: Mitogen-activated protein kinase 14 (Homo sapiens, UniProt Q16539); assay: SAPK2a(h) Kinase panel; conditions: Compound concentration 1.0 uM, tested as the 2H-labelled form
[45] = biological target: Tyrosine-protein kinase ABL2 (Homo sapiens) (UniProt P42684); assay: Arg(h) Kinase panel; conditions: Compound concentration 1.0 uM, tested as the 2H-labelled form
[46] = biological target: Serine/threonine-protein kinase PLK3 (Homo sapiens) (UniProt Q9H4B4); assay: Plk3(h) Kinase panel; conditions: Compound concentration 1.0 uM, tested as the 2H-labelled form
[47] = biological target: Serine/threonine-protein kinase SIK1 (Homo sapiens) (UniProt P57059); assay: SIK(h) Kinase panel; conditions: Compound concentration 1.0 uM, tested as the 2H-labelled form
[48] = biological target: Ribosomal protein S6 kinase alpha-5 (Homo sapiens) (UniProt O75582); assay: MSK1(h) Kinase panel; conditions: Compound concentration 1.0 uM, tested as the 2H-labelled form
[49] = biological target: Serine/threonine-protein kinase TAO2 (Homo sapiens) (UniProt Q9UL54); assay: TAO2(h) Kinase panel; conditions: Compound concentration 1.0 uM, tested as the 2H-labelled form
[50] = biological target: Serine/threonine-protein kinase ULK3 (Homo sapiens) (UniProt Q6PHR2); assay: ULK3(h) Kinase panel; conditions: Compound concentration 1.0 uM, tested as the 2H-labelled form
[51] = biological target: Calcium/calmodulin-dependent protein kinase type IV (Homo sapiens) (UniProt Q16566); assay: CaMKIV(h) Kinase panel; conditions: Compound concentration 1.0 uM, tested as the 2H-labelled form

inhibition [1]: 14% | inhibition [2]: 7% | inhibition [3]: 4.12% | inhibition [4]: -4% | inhibition [5]: 13% | inhibition [6]: 18% | inhibition [7]: 13% | inhibition [8]: -0.4% | inhibition [9]: -8% | inhibition [10]: 9% | inhibition [11]: 6% | inhibition [12]: 20% | inhibition [13]: 12% | inhibition [14]: -9% | inhibition [15]: -3% | inhibition [16]: 14% | inhibition [17]: 5% | inhibition [18]: 15% | inhibition [19]: 0% | inhibition [20]: -8% | inhibition [21]: 10% | inhibition [22]: -7% | inhibition [23]: -4% | inhibition [24]: 31% | inhibition [25]: 6% | inhibition [26]: 5% | inhibition [27]: -8% | inhibition [28]: -6% | inhibition [29]: 13% | inhibition [30]: 3% | inhibition [31]: -1% | inhibition [32]: 16% | inhibition [33]: 9% | inhibition [34]: 15% | inhibition [35]: 20% | inhibition [36]: -9% | inhibition [37]: 15% | inhibition [38]: -2.78% | inhibition [39]: 10% | inhibition [40]: 19% | inhibition [41]: -4% | inhibition [42]: 17% | inhibition [43]: 4% | inhibition [44]: 12% | inhibition [45]: 7% | inhibition [46]: -7% | inhibition [47]: -9% | inhibition [48]: 8% | inhibition [49]: 18% | inhibition [50]: 12% | inhibition [51]: -5%
Structure (SMILES): CC1(C)Cn2nc(-c3ccc(F)cn3)c(-c3ccnc4[nH]ncc34)c2CO1
